Test results taken from paper PMC11421016, “Biotransformation and Epithelial Toxicity of Prenylated Phenolics from Licorice Roots (Glycyrrhiza spp.) in 3D Apical-Out Mucus-Producing Human Enteroids” (Journal of Agricultural and Food Chemistry, 2024).
Read-outs that look alike come from different tables or passages of the source.

Legend:
[1] = test system: human ileal apical-out enteroids; assay: Cytotoxicity by LDH leakage assay in apical-out enteroids; assay type: cell-based
Description: (§1) Cytotoxicity and effects on cell viability after exposure to glab, licoA, and glycy in apical-out and apical-in enteroids (6.25–500 μg mL^–1) and proliferating Caco-2 cells (3.13–100 μg mL^–1) were determined by LDH leakage (Section 2.6.1) and WST-1 assays (Section 2.6.2), respectively. For this, stock solutions of 50 mg mL^–1 of glab, licoA, and glycy in DMSO were used. […] An overview of the experimental conditions for the exposure experiments with glab, licoA, and glycy is shown in Table S2 (Supporting Information). In brief, apical-out and apical-in enteroids were grown for 7–10 days in OGM (∼200 enteroids per dome), after which the medium was changed to ODM (supplemented with 5 μM DAPT) to initiate enteroid differentiation. To generate apical-out enteroids, MG was removed from apical-in enteroids in OGM at day 7–10, as described in Section 2.3, and suspended in supplemented ODM. After 3 days in ODM, the effects on cytotoxicity and cell viability of glab, licoA, and glycy in apical-out and apical-in enteroids (passages between 3 and 17) were assessed after 4 and 24 h of incubation. For apical-out enteroids in a suspension, enteroids were pelleted by centrifugation (2 min, 200g, RT), after which the ODM was removed and 500 μL of the experimental agent was added. […] Caco-2 cells were grown for 48 h after seeding before experiments (passages 14–19) with proliferating cells and for 21 days after seeding (passages 14–33) with differentiated cells.[17] The medium (DMEM supplemented with FCS) was changed every 2 days. For exposure experiments, Caco-2 cells were incubated with glab, licoA, and glycy in DMEM without FCS, as FCS serves as an exogenous source of LDH.[22]
(§2) Cytotoxic effects of glab, licoA, and glycy were assessed by measuring leakage of intracellular lactate dehydrogenase (LDH) in the supernatant and analyzed using an LDH cytotoxicity detection kit (Roche Applied Science, Almere, The Netherlands), according to the manufacturer’s instructions. The LDH activity in the supernatant was expressed as the percentage of the maximum releasable LDH in enteroids or Caco-2 cells (enteroids or Caco-2 cells treated with 1% (v/v) Triton X-100) and calculated with eq 1. [drawing 1] 1 in which exp. value is the UV absorbance at 492 nm (Tecan Spark or Tecan Infinite 200 Pro, Tecan Group Ltd., Zürich, Switzerland), background control is the medium with corresponding concentration of glab, licoA, or glycy, and high control is the maximum releasable LDH in enteroids or Caco-2 cells. For enteroids, each well was used as its own positive control by taking the total releasable LDH of each well after incubation.

[2] = Cell viability by WST-1 assay in apical-out enteroids; assay type: cell-based, human; settings: human
Description: as §1
(§3) Effects on cell viability after stimulation by glab, licoA, and glycy were assessed by measuring cleavage of the tetrazolium salt WST-1 to formazan catalyzed by cellular mitochondrial dehydrogenases and analyzed using a WST-1 cell viability kit (PromoKine, Heidelberg, Germany), according to the manufacturer’s instructions. Cell viability was expressed as the percentage of the control cells (enteroids or Caco-2 cells grown in a medium) and was calculated with eq 2. [drawing 2] 2 in which exp. value is the UV absorbance at 450 nm (Tecan Spark or Tecan Infinite 200 Pro) and low control is the spontaneous cleavage of WST-1 to formazan by mitochondrial dehydrogenases in untreated enteroids or Caco-2 cells.

[3] = test system: human ileal apical-in enteroids; assay: Cytotoxicity by LDH leakage assay in apical-in enteroids; assay type: cell-based; settings: 4 h, cutoff 25% vs negative control
Description: as §1, §2

Caco-2 cells = assay: Cytotoxicity by LDH leakage assay in Caco-2 cells; assay type: cell-based, human; settings: proliferating and differentiated Caco-2 cells (differentiated: ref 17), cutoff 25%
Description: The human colon adenocarcinoma cell line (Caco-2) was obtained from the American Type Culture Collection (ATCC; Manassas, VA, USA). Caco-2 cells were cultured in DMEM, in a humidified atmosphere of 5% CO2 at 37 °C until 80–90% confluency was reached. Effects on the cytotoxicity and cell viability (Section 2.6) were assessed in proliferating and differentiated Caco-2 cells. The effects on differentiated Caco-2 cells were recently described in our publication.[17] Proliferating and differentiated Caco-2 cells were seeded into 96-well plates at a density of 15,000 cells per cm^2.
Cytotoxicity and effects on cell viability after exposure to glab, licoA, and glycy in apical-out and apical-in enteroids (6.25–500 μg mL^–1) and proliferating Caco-2 cells (3.13–100 μg mL^–1) were determined by LDH leakage (Section 2.6.1) and WST-1 assays (Section 2.6.2), respectively. For this, stock solutions of 50 mg mL^–1 of glab, licoA, and glycy in DMSO were used. […] After 3 days in ODM, the effects on cytotoxicity and cell viability of glab, licoA, and glycy in apical-out and apical-in enteroids (passages between 3 and 17) were assessed after 4 and 24 h of incubation. […]
as §2, with “[drawing 1]” left out, “For enteroids, each well was used as its own positive control by taking the total releasable LDH of each well after incubation.” left out

[4] = test system: human ileal apical-out enteroids; settings: 12.5 μg mL^–1 (34–39 μM), 4 h exposure
Description: Effects on barrier integrity of apical-out enteroids after glab, licoA, and glycy exposure were evaluated with a dextran diffusion assay, adapted from Co et al.[14] […] Enteroids were allowed to settle by gravity (5 min) into a pellet, the FITC-dextran 4 kDa was aspirated, and enteroids were washed with DMEM/F12 (3 min, 250g, RT). Enteroids were suspended in fresh DMEM/F12, and they were imaged with an EVOS FL Auto 2 cell imaging system. Images were analyzed using ImageJ software (version 1.52).

[5] = test system: human apical-out ileal enteroids; assay: Biotransformation in apical-out ileal enteroids (RP-UHPLC-PDA-MSn); assay type: in vitro ADME; settings: for sulfation (LC-MS analysis): human ileal apical-out and apical-in enteroids; for biotransformation products formed: released on the apical side; for phase I biotransformation products: up to 24 h incubation
Description: (§4) Biotransformation of glab, licoA, and glycy in apical-out and apical-in enteroids was evaluated after 0, 4, and 24 h of incubation. For this, apical-out enteroids were stimulated with 50 μg mL^–1 (154 μM) glab, or with 100 μg mL^–1 licoA (296 μM), or 100 μg mL^–1 glycy (272 μM), and apical-in enteroids were stimulated with 50 μg mL^–1 glab (154 μM), 50 μg mL^–1 licoA (148 μM), or 50 μg mL^–1 glycy (136 μM). […] For apical-out enteroids, parent compounds and their transformation products were assessed on the enteroids’ apical (facing the medium) and basolateral side (inside the enteroids) and intracellularly. In apical-in enteroids, parent compounds and metabolites were assessed on the basolateral side (facing the medium). For the apical release, apical-out enteroids were pelleted (250g, 3 min, 4 °C), and the supernatant was used for LC-MS analysis, after which the enteroids were washed with PBS. Enteroids in a suspension in fresh PBS were broken up by vigorously pipetting up and down approximately for 20 times, after which enteroids were pelleted and the supernatant was used to determine basolateral release by using LC-MS. Enteroids were washed with PBS, and the enteroids’ cells in fresh PBS were disrupted on ice with a digital sonifier (Branson Ultrasonics Corporation, Danbury, CT, USA) with the following settings: a 5 s pulse, a 10 s pause, an amplitude of 55%, and 12 cycles. Enteroids were pelleted, and the supernatant was used as a measure for intracellular release and measured with LC-MS.
(§5) Samples were separated on a Thermo Vanquish UHPLC system (Thermo Scientific, San Jose, CA, USA) equipped with a pump, a degasser, an autosampler, and a PDA detector, as described elsewhere.[15] Eluents used were (A) LC-MS-grade MQ + 0.1% FA (v/v) and (B) LC-MS-grade ACN + 0.1% FA (v/v). The elution program was started by running isocratically at 1% B for 1.09 min followed by a 1.09–26.16 min linear gradient to 70% B, a 26.16–27.25 min linear gradient to 100% B, and 27.25–32.70 min isocratically at 100% B. The eluent was adjusted to start conditions in 1.09 min followed by equilibration of 5.45 min.
(§6) Mass spectrometric data were acquired using an LTQ Velos Pro linear ion trap mass spectrometer (Thermo Scientific), equipped with a heated ESI probe coupled in-line to the Vanquish UHPLC system, as described elsewhere.[15] Data were processed using Xcalibur 4.1 (Thermo Scientific).
(§7) Quantification of glab, licoA, glycy, and produced metabolites was based on UV absorbance at 280 nm (glab), 340–390 nm (licoA), and 320–370 nm (glycy). For this, a seven-point calibration (0.01–150 μg mL^–1) curve based on external standards of glab, licoA, and glycy (R^2 > 0.999) was used. UV peaks were integrated using the AVALON integration algorithm with the autocalc function (Xcalibur 4.1). Metabolites were quantified as glab, licoA, or glycy equivalents.

[6] = test system: human apical-in ileal enteroids; assay: Biotransformation in apical-in ileal enteroids (RP-UHPLC-PDA-MSn); assay type: in vitro ADME; settings: for biotransformation products formed: identified at the basolateral side; for phase I metabolites: up to 24 h incubation
Description: as §4, §5, §6, §7

[7] = Stability in the medium without enteroids; assay type: physicochemical; settings: after 24 h of incubation
Description: as §7

Gram-positive bacteria = test system: Gram-positive bacteria; design: method as in PMID 36377761; settings: against Gram-positive bacteria, cited from earlier work
[8] = test system: human CYP enzymes (i.e., CYP3A4); design: method as in PMID 17220245, PMID 28774812, PMID 12019199, PMID 26100226; settings: cited from earlier work
[9] = test system: human ileal apical-out enteroids; assay: Cell viability by WST-1 assay in apical-out enteroids; assay type: cell-based; settings: 4 h exposure, range 6.25 up to 500 μg mL^–1
Description: as §1, §3

## COc1c(CC=C(C)C)c(O)cc2oc(=O)c(-c3ccc(O)cc3O)cc12 [glycycoumarin]
[1]; human
  fold higher concentration for significant cytotoxicity in apical-out vs apical-in enteroids: 3-5 fold
[1]; human, 4 h, 500 μg mL^–1
  cytotoxicity (LDH): −2 ± 2%
[2]
  viability at 4 h, 500 μg mL^–1: 77 ± 13%
[3]
  highest nontoxic concentration (LDH): around 300 μM
Caco-2 cells
  highest nontoxic concentration (LDH): around 75 μM
[4]
  epithelial barrier (membrane) integrity: did not seem to disrupt
[5]
  sulfation (LC-MS analysis): did not reveal sulfation
  biotransformation products formed: glucuronide metabolites
  phase I biotransformation products: No phase I biotransformation products
[6]
  biotransformation products formed: transformed to their glucuronides
  phase I metabolites: no phase I metabolites were identified
[7]
  recovery in the medium (without enteroids): 101 ± 3.0%
Gram-positive bacteria
  minimum inhibitory concentration (MIC): 12.5 μg mL^–1
Gram-positive bacteria; equivalent of 12.5 μg mL^–1
  minimum inhibitory concentration (MIC): 34 µM
[8]
  inhibition of human CYP enzymes (i.e., CYP3A4): inhibition

## C=CC(C)(C)c1cc(/C=C/C(=O)c2ccc(O)cc2)c(OC)cc1O [licochalcone A]
[1]; 500 μg mL^–1, 4 h exposure, % of maximum releasable LDH
  cytotoxicity (LDH): −6 ± 2%
[1]; 4 h exposure, up to 500 μg mL^–1, p > 0.05
  effects on cytotoxicity up to the highest concentrations: No significant effects on cytotoxicity
[2]; apical-out ileal enteroids, 500 μg mL^–1, 4 h exposure, negative control set at 100%, read-out: cell viability (WST-1)
  viability at 4 h, 500 μg mL^–1: 77 ± 22%
[9]
  cell viability (WST-1), slight decrease, not statistically significant: approximately 80%
[3]
  highest nontoxic concentration (LDH): around 300 μM
Caco-2 cells
  highest nontoxic concentration (LDH): around 75 μM
[4]
  epithelial barrier (membrane) integrity: did not seem to disrupt
[5]; 24 h exposure, 100 μg mL^–1 (licoA, glycy), apical side
  % biotransformation to glucuronide compared to parent at t = 0 h: comparably low
[5]
  sulfation (LC-MS analysis): did not reveal sulfation
  biotransformation products formed: glucuronide metabolites
  phase I biotransformation products: No phase I biotransformation products
[6]; 24 h exposure, 50 μg mL^–1, basolateral side
  % biotransformation to glucuronide compared to parent at t = 0 h: comparably low
[6]
  biotransformation products formed: transformed to their glucuronides
  phase I metabolites: no phase I metabolites were identified
[7]
  recovery in the medium (without enteroids): 101 ± 3.2%
Gram-positive bacteria
  minimum inhibitory concentration (MIC): 12.5 μg mL^–1
Gram-positive bacteria; equivalent of 12.5 μg mL^–1
  minimum inhibitory concentration (MIC): 37 µM
[8]
  inhibition of human CYP enzymes (i.e., CYP3A4): inhibition
